Data as given in paper PMC8145107 (Pharmaceutics, 2021).
Where “and” joins values, the source holds several entries; their conditions need not be identical. Equal entries are not always repeated. Where two headings read alike, the source gives them in different places.

Tests used:
[1] = system: Salmonella typhimurium TA100; conditions: for Ames test outcome versus vehicle control: TA100, 48 h, J2 40 μg/plate, NA49 200 μg/plate
Experimental: (§1) To perform the Ames test of J2 and NA49, the number of revertant colonies was counted on each compound-treated plate at the maximum concentration at which the compound was soluble and nontoxic to the S. typhimurium tester strains (Supplementary Material S1). The ratio of the number of revertant colonies in the treated plate to colonies in the vehicle plate. […] For the hERG K^+ channel binding assay of J2 and NA49, the inhibitory activity against the hERG K^+ channel and its ligand was measured using a red fluorescent hERG channel ligand tracer. The final activity was assessed as a decrease in the degree of fluorescence polarization. […]
(§2) The test was conducted with maximum concentration at which the compound was
(§3) soluble and nontoxic to the S. typhimurium tester strains. #Factor = No. of revertant colonies
(§4) of treated plate colonies of vehicle control plate. […]

[2] = system: Salmonella typhimurium TA98; conditions: for Ames test outcome versus vehicle control: TA98, 48 h, J2 40 μg/plate, NA49 200 μg/plate
Experimental: as §1, §2, §3, §4

[3] = system: HFL-1: human embryonic lung cell line; assay: Cytotoxicity in normal mammalian cells (HFL-1); format: cell-based; conditions: HFL1, HFL-1, 24 h, 0.01-100 μM, read-out: IC50 of compounds in various normal mammalian cells
[4] = Liver microsomal phase I stability assay (human); format: in vitro ADME; conditions: human liver microsomes
hERG K+ channel = hERG K+ channel binding assay (fluorescence polarization, red fluorescent tracer); conditions: human, probe red fluorescent hERG channel ligand tracer; concentration treated 10 μM
Experimental: as §1
For hERG K+ channel binding […]
assay, measuring the inhibitory activity against the hERG K+ channel and its ligand using red fluorescent hERG channel ligand tracer. Final activity was assessed by the decrease in fluorescence polarization degree.

[5] = Liver microsomal phase I stability assay (rat); format: in vitro ADME; conditions: rat liver microsomes
[6] = system: HSP27 recombinant protein; assay: HSP27 cross-linking with recombinant protein (Western blot); format: biochemical; conditions: 10 μM, 3 h
Experimental: For polyacrylamide gel electrophoresis (PAGE) and Western blot (WB) analysis, cells were lysed with radioimmunoprecipitation assay (RIPA) buffer (50 mM Tris-HCl [pH 7.5], 150 mM NaCl, 1% NP-40, 0.1% sodium dodecyl sulfate (SDS), and 1% sodium deoxycholate) supplemented with 1 mM Na3VO4, 1 mM dithiothreitol (DTT), 1 mM phenyl-methyl-sulfonyl fluoride (PMSF), and protease inhibitor cocktail (Calbiochem). The samples were boiled for 5 min, and equal amounts of protein were analyzed by SDS-PAGE. […]
Figure S3. […] (A) HSP25 WT protein was pretreated with NAC (N-acetyl-L-cysteine) at 20 mM for 30 min and then treated with J2 or NA49 at 10 μM. After 3 h, the dimerization of proteins was altered. ( B) NCI-H460 cells were tr eated with J2 or NA49 (0, 1, 5, 10 and 20 μM) for 24 h, and cell lysates were detected by Western blot analysis. […]

[7] = Log P by pH-metric method; format: physicochemical
[8] = Single-dose IV toxicity in ICR mice; format: in vivo, mouse; conditions: male, mouse, in vivo, not achieved by the maximum dose
Description: (§5) Male Sprague–Dawley rats (7-week-old) and male Institute of Cancer Research (ICR) mice (5-week-old) were purchased from Orient Bio (Seongnam, Korea) and Samtako Bio (Osan, Korea), respectively. The experimental animals were housed under conventional conditions and fasted overnight before surgery for catheterization. All procedures for animal experiments were in accordance with the guidelines by the Ewha Woman’s University Institutional Animal Care and Use Committee (IACUC, 15-049 and 16-062), Korea.
(§6) For single-dose toxicity study of each drug, ICR mice were divided into 6 groups of control (0.9% normal saline), vehicle, and four dosages of each inhibitor (n = 4 mice per group). Both inhibitors dissolved in the same solvent system as the pharmacokinetic study were administered to the mice by caudal vein injection at doses of 2.5, 7.5, 15 and 30 mg/kg. After a single administration, all mice were observed daily for general conditions including behavior, hair, eyes, and nose. In addition, body weight was measured on days 0, 3, 7, and 14 following IV administration.

ICR mice = assay: Single-dose IV toxicity in ICR mice; format: in vivo, mouse; conditions: 14 days, n = 4
Description: as §5, §6

[9] = In vitro human plasma stability; format: in vitro ADME; conditions: for Half-life predicted from in vitro plasma stability: human plasma
Experimental: (§7) Permeability was evaluated with a parallel artificial membrane permeability (PAMPA) assay using an artificially generated lipid-infused membrane.

CYP2C9 = CYP2C9 (Homo sapiens, UniProt P11712); assay: CYP450 enzyme inhibition, 2C9; format: in vitro ADME; conditions: compound 0.05~50 μM; read-out: IC50 against CYP450 isotype 2C9
Experimental: as §7

CYP450 3A4 = CYP450 3A4 (Homo sapiens, UniProt P08684); assay: CYP450 enzyme inhibition, 3A4
[10] = system: VERO: African green monkey kidney cell line; assay: Cytotoxicity in normal mammalian cells (VERO); format: cell-based; conditions: Chlorocebus sabaeus, 24 h, 0.01-100 μM, read-out: IC50 of compounds in various normal mammalian cells
CYP1A2 = target: T1, CYP1A2 (Homo sapiens, UniProt P05177); assay: biochemical
T1 sequence (P05177 1-516): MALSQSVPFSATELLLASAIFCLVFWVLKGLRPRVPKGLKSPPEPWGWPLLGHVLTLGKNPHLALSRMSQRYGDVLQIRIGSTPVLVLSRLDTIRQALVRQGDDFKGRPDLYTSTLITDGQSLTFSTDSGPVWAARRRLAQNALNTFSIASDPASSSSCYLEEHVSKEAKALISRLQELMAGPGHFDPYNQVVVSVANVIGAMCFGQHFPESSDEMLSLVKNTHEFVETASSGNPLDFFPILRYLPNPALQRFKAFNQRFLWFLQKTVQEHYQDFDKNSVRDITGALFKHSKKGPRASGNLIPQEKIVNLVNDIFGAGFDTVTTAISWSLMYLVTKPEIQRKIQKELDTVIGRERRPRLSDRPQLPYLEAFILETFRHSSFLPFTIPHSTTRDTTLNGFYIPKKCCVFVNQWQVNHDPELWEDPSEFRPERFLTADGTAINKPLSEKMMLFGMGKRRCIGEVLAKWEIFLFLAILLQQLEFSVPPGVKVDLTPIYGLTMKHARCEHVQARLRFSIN

[11] = TA100, with S-9 mix, J2 40, NA49 200, benzo(a)pyrene 2 μg/plate
[12] = TA100, without S-9 mix, J2 40, NA49 200 μg/plate
[13] = TA98, with S-9 mix, J2 40, NA49 200, benzo(a)pyrene 2 μg/plate
[14] = TA98, without S-9 mix, J2 40, NA49 200, positive controls 1-2 μg/plate

CYP450 3A4, sequence (P08684 whole entry): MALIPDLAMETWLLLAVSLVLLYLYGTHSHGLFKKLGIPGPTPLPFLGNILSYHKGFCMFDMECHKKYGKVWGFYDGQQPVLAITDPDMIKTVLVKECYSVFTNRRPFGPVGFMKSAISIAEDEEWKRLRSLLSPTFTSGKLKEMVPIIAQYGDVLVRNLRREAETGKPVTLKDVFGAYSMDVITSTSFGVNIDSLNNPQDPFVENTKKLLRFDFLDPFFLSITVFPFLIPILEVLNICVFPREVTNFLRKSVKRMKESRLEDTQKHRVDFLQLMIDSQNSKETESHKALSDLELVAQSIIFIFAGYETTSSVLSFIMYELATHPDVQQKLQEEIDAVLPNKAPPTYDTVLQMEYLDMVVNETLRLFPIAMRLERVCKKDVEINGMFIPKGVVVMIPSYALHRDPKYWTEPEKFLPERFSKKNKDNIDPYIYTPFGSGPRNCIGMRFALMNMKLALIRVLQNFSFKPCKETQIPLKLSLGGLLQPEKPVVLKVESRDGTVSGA
CYP2C9, sequence (P11712 whole entry): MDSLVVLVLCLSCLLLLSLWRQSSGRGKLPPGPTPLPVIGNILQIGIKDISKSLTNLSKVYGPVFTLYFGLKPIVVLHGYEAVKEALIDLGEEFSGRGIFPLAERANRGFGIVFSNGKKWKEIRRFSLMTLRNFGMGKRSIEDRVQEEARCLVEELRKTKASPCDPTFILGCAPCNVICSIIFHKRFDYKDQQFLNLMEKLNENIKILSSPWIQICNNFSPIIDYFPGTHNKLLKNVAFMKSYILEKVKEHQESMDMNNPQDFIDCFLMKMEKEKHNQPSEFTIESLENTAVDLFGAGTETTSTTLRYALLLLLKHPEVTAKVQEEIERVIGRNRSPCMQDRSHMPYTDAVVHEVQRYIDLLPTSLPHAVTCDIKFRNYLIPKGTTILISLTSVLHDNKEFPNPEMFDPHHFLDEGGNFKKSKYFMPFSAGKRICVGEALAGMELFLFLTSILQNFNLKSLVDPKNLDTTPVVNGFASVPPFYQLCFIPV

Cc1cc(=O)c2c(O)cc(OCC3CS3)cc2o1 (centres unmarked) [J2]
Factor (revertant colonies of treated plate/vehicle control plate) [1, 11]: 3.1
Revertant colonies/plate (Mean ± S.D.) [1, 11]: 418 ± 9 colonies/plate
Factor (revertant colonies of treated plate/vehicle control plate) [1, 12]: 6.0
Revertant colonies/plate (Mean ± S.D.) [1, 12]: 643 ± 70 colonies/plate
Ames test outcome versus vehicle control [1]: increased bacterial reverse mutation
Factor (revertant colonies of treated plate/vehicle control plate) [2, 13]: 3.8
Revertant colonies/plate (Mean ± S.D.) [2, 13]: 65 ± 2 colonies/plate
Factor (revertant colonies of treated plate/vehicle control plate) [2, 14]: 3.6
Revertant colonies/plate (Mean ± S.D.) [2, 14]: 57 ± 7 colonies/plate
Ames test outcome versus vehicle control [2]: increased bacterial reverse mutation
IC50 [3]: > 100 µM
In vitro Metabolic Stability (% of remaining after 30 min) [4]: 47.8 ± 4.50%
inhibition at 10 μM (hERG K+ channel): 8.7 ± 2.22%
In vitro Metabolic Stability (% of remaining after 30 min) [5]: 2.6 ± 0.45%
HSP27 cross-linking activity (altered dimerization) [6]: Altered dimerization of HSP27
logP [7]: 2.78
LD50 at 14 days [8]: > 30 mg/kg
Survival Rate (%) (ICR mice; 2.5 mg/kg): 100%
Survival Rate (%) (ICR mice; 7.5 mg/kg): 100%
Survival Rate (%) (ICR mice; 15 mg/kg): 100%
Survival Rate (%) (ICR mice; 30 mg/kg): 100%
Half-life predicted from in vitro plasma stability [9]: about 3 h
In vitro Human Plasma Stability at 37 °C (% of remaining after 1 h) ([9]; treated with 0.5 μg/mL): 76.2% and 76.2 ± 0.72%
In vitro Human Plasma Stability at 37 °C (% of remaining after 1 h) ([9]; treated with 5 μg/mL): 82.7% and 82.7 ± 0.73%
IC50 (CYP2C9): > 50 µM
IC50 (CYP450 3A4): > 50 µM
IC50 [10]: 91.8 µM
IC50 (CYP1A2): 0.1 µM

COc1ccc(-c2coc3cc(OCC4CS4)ccc3c2=O)c(OC)c1 (centres unmarked) [NA49]
Factor (revertant colonies of treated plate/vehicle control plate) [1, 11]: 1.9
Revertant colonies/plate (Mean ± S.D.) [1, 11]: 262 ± 11 colonies/plate
Factor (revertant colonies of treated plate/vehicle control plate) [1, 12]: 2.0
Revertant colonies/plate (Mean ± S.D.) [1, 12]: 229 ± 2 colonies/plate
Ames test outcome versus vehicle control [1]: no significant increase
Factor (revertant colonies of treated plate/vehicle control plate) [2, 13]: 1.3
Revertant colonies/plate (Mean ± S.D.) [2, 13]: 22 ± 2 colonies/plate
Factor (revertant colonies of treated plate/vehicle control plate) [2, 14]: 1.2
Revertant colonies/plate (Mean ± S.D.) [2, 14]: 19 ± 3 colonies/plate
Ames test outcome versus vehicle control [2]: no significant increase
IC50 [3]: 94.5 µM
In vitro Metabolic Stability (% of remaining after 30 min) [4]: 24.9 ± 0.77%
inhibition at 10 μM (hERG K+ channel): 39 ± 3.9%
In vitro Metabolic Stability (% of remaining after 30 min) [5]: 5.0 ± 1.33%
HSP27 cross-linking activity (altered dimerization) [6]: stronger cross-linking activity than J2
logP [7]: 3.04
LD50 at 14 days [8]: > 30 mg/kg
Survival Rate (%) (ICR mice; 2.5 mg/kg): 100%
Survival Rate (%) (ICR mice; 7.5 mg/kg): 100%
Survival Rate (%) (ICR mice; 15 mg/kg): 100%
Survival Rate (%) (ICR mice; 30 mg/kg): 75%
Half-life predicted from in vitro plasma stability [9]: > 6 h
In vitro Human Plasma Stability at 37 °C (% of remaining after 1 h) ([9]; treated with 0.5 μg/mL): 146.6% and 146.6 ± 0.01%
In vitro Human Plasma Stability at 37 °C (% of remaining after 1 h) ([9]; treated with 5 μg/mL): 101.4% and 101.4 ± 0.13%
IC50 (CYP2C9): 19.2 µM
IC50 (CYP450 3A4): > 50 µM
IC50 [10]: 83.6 µM
IC50 (CYP1A2): > 50 µM
